Laboratory results taken from US8324176B2, “Pyrazole derivatives, medicinal composition containing the same, medicinal use thereof, and intermediate for production thereof” (Kissei Pharmaceutical Co., Ltd., priority 2002, dated 2012).

How the values were obtained:
[1] = molecular target: T1, human SGLT1 (Homo sapiens, UniProt P13866); assay: Assay for inhibitory effects on human SGLT1 activity (uptake of methyl-α-D-glucopyranoside in CS1-5-11D cells); format: cell-based; conditions: CHO-K1 cells stably expressing human SGLT1 (CS1-5-11D); 1 mM α-MG uptake, 37° C., 1 hour
T1 construct: expressed in transfected cells
T1 sequence (P13866 1-664): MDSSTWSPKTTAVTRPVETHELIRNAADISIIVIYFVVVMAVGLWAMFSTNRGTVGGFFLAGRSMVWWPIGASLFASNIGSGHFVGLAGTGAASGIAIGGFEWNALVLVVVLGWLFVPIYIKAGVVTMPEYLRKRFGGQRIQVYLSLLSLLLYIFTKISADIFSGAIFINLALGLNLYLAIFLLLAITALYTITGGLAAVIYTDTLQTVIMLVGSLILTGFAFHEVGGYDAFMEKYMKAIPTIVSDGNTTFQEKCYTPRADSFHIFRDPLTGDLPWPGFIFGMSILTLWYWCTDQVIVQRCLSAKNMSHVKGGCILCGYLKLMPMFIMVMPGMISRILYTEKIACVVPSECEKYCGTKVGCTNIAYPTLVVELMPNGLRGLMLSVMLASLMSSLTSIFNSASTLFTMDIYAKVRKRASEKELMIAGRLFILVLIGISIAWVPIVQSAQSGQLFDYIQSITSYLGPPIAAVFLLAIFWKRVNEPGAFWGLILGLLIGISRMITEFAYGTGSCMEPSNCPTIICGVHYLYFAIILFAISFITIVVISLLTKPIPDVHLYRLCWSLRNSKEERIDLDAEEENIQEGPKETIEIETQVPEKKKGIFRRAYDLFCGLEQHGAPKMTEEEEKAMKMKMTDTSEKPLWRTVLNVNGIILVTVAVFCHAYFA
Description: Assay for Inhibitory Effects on Human SGLT1 Activity
1) Cloning and Construction of the Vector Expressing Human SGLT1
The cDNA library was prepared for PCR amplification by reverse transcription from total RNA deprived from human small intestine (Ori gene) using oligo-dT as a primer.
2) Establishment of Cell Line Stably Expressing Human SGLT1
The expression vector of human SGLT1 was digested by Sca I into a linear DNA. The linear DNA was transfected into CHO-K1 cells by means of lipofection (Effectene Transfection Reagent: QIAGEN). Neomycin resistant cell lines were selected by culture in the medium containing G418 (1 mg/mL, LIFE TECHNOLOGIES), and then the activity against the uptake of methyl-α-D-glucopyranoside was measured by the method described below. […] CS1-5-11D cells were cultured in the presence of G418 at 200 μg/mL.
3) Measurement of the Inhibitory Activity Against the Uptake of Methyl-α-D-glucopyranoside (α-MG)
CS1-5-11D cells were seeded into a 96-well culture plate at a density of 3×10^4 cells/well and cultured for 2 days, and were used in the uptake assay. A mixture of non-labeled (Sigma) and ^14C-labeled α-MG (Amersham Pharmcia Biotec) was added to the uptake buffer (pH 7.4: containing 140 mM sodium chloride, 2 mM potassium chloride, 1 mM calcium chloride, 1 mM magnesium chloride, 10 mM 2-[4-(2-hydroxyethyl)-1-piperazinyl]ethane sulfonic acid, and 5 mM tris(hydroxymethyl)aminomethane) at the final concentration of 1 mM. A test compound was dissolved in dimethyl sulfoxide, and then appropriately diluted with distilled water. The test compound solution was added to the uptake buffer containing 1 mM α-MG, and designated as a measurement buffer. For the control group, the measurement buffer without any test compound was prepared. For measuring the basal uptake, a basal uptake measurement buffer which contains 140 mM chorine chloride instead of sodium chloride was prepared. After removing the culture medium of CS1-5-11D cells, 180 μL of the pre-treatment buffer (the basal uptake buffer without α-MG) was added to each well and incubated at 37° C. for 10 minutes. After repeating the same treatment, the pre-treatment buffer was removed. To each well was added 75 μL of the measurement buffer or the basal uptake buffer was added and incubated at 37° C. for 1 hour. After removing the measurement buffer, cells were washed twice with 180 μL per well of the washing buffer (the basal uptake buffer containing 10 mM non-labeled α-MG). The cells were solubilized by 75 μL per well of 0.2 mol/L sodium hydroxide. The cell lysates were transferred into PicoPlates (Packard), and then added 150 μL of MicroScint-40 (Packard) and mixed. Radioactivity was measured by means of micro-scintillation counter TopCount (Packard). One hundred was set to the difference between the uptake in the control group and the basal uptake, and the uptake of methyl α-D-glucopyranoside a teach drug concentration were calculated.

[2] = system: diabetic rats; assay: Assay for inhibitory effects on blood glucose level increase in rats (liquid meal tolerance test); format: in vivo, rat; conditions: test compound 1 mg/kg orally, liquid meal 17.25 kcal/kg, mean±S.E.; for Plasma glucose concentration 0.5 h: 0.5 hour after the drug administration; for Plasma glucose concentration 1 h: 1 hour after the drug administration
Description: Assay for Inhibitory Effects on Blood Glucose Level Increase in Rats
1) Preparation of Diabetic Rat Model
Male wistar rats (Japan Charles River), aged 8 weeks old, were injected nicotinamide (230 mg/kg) intraperitoneally. Fifteen minutes after injection, they were injected streptozotocin (85 mg/kg) intravenously from tail vain under anesthesia with ether. After a week, rats were fasted overnight and then glucose tolerance test (2 g/kg) was done.
2) Liquid Meal Tolerance Test
After overnight fasted, the diabetic rats were orally administered a test compound (1 mg/kg), which was dissolved in distilled water or 0.5% aqueous carboxymethylcellulose solution, in the drug-treating group, or distilled water or 0.5% aqueous carboxymethylcellulose solution alone in a control group. Immediately after the compound administration, 17.25 kcal/kg of liquid meal (No. 038, Control diet, assorted with dextrin and maltose; Oriental Yeast Co., Ltd.) was loaded orally. The blood was collected from tail artery immediately before and after administration with the time course, and treated with heparin immediately. The blood was centrifuged, and the plasma was collected to quantify the plasma glucose concentration by glucose oxidase method. The values in the Table are presented as the mean±S.E.

[3] = system: Male ICR mice; assay: Acute toxicity test; format: in vivo; conditions: n=5, oral dose of 1 g/kg, observed for 24 hours
Description: Male ICR mice (CLEA Japan, Inc.; 32-37 g, n=5), aged 6 weeks old, were fasted for 4 hours.

| SMILES | IC50 [1] | Plasma glucose concentration 0.5 h [2] | Plasma glucose concentration 1 h [2] | Number of death [3] | Plasma glucose concentration 0 h ([2]; pretreatment (0 h)) |
| --- | --- | --- | --- | --- | --- |
| CC(C)c1[nH]nc(O[C@@H]2O[C@H](CO)[C@@H](O)[C@H](O)[C@H]2O)c1Cc1ccc(OCCCN)cc1 [Example 6, 4-{[4-(3-Aminopropoxy)phenyl]methyl}-3-(β-D-glucopyranosyloxy)-5-isopropyl-1H-pyrazole] | 304 nM | 126 ± 12 mg/dL | 140 ± 13 mg/dL |  |  |
| CC(C)c1[nH]nc(O[C@@H]2O[C@H](CO)[C@@H](O)[C@H](O)[C@H]2O)c1Cc1ccc(OCCCNS(C)(=O)=O)cc1 [Example 10, 3-(β-D-Glucopyranosyloxy)-5-isopropyl-4-({4-[3-(methanesulfonylamino)propoxy]phenyl}methyl)-1H-pyrazole] | 169 nM | 145 ± 5 mg/dL | 164 ± 6 mg/dL |  |  |
| CC(C)c1[nH]nc(O[C@@H]2O[C@H](CO)[C@@H](O)[C@H](O)[C@H]2O)c1Cc1ccc(OCCCNC(=O)CN)cc1 [Example 13, 4-({4-[3-(2-Aminoacetylamino)propoxy]phenyl}methyl)-3-(β-D-glucopyranosyloxy)-5-isopropyl-1H-pyrazole] | 267 nM | 127 ± 7 mg/dL | 135 ± 7 mg/dL |  |  |
| CC(C)c1[nH]nc(O[C@@H]2O[C@H](CO)[C@@H](O)[C@H](O)[C@H]2O)c1Cc1ccc(OCCCNC(=O)NC(C)(CO)CO)cc1 [Example 21, 3-(β-D-Glucopyranosyloxy)-4-{[4-(3-{3-[2-hydroxy-1-(hydroxymethyl)-1-(methyl)ethyl]ureido}propoxy)phenyl]-methyl}-5-isopropyl-1H-pyrazole] | 127 nM | 211 ± 22 mg/dL | 242 ± 35 mg/dL |  |  |
| CC(C)c1[nH]nc(O[C@@H]2O[C@H](CO)[C@@H](O)[C@H](O)[C@H]2O)c1Cc1ccc(OCCCNC(=O)NC(C)(C)CO)cc1 [Example 24, 3-(β-D-Glucopyranosyloxy)-4-{[4-(3-{3-[2-hydroxy-1,1-di(methyl)ethyl]ureido}propoxy)phenyl]methyl}-5-isopropyl-1H-pyrazole] | 61 nM | 210 ± 33 mg/dL | 228 ± 50 mg/dL |  |  |
| Cc1cc(OCCCN2CCN(CCO)CC2)ccc1Cc1c(O[C@@H]2O[C@H](CO)[C@@H](O)[C@H](O)[C@H]2O)n[nH]c1C(C)C [Example 35, 3-(β-D-Glucopyranosyloxy)-4-[(4-{3-[4-(2-hydroxyethyl)piperazin-1-yl]propoxy}-2-methylphenyl)methyl]-5-isopropyl-1H-pyrazole] | 160 nM | 188 ± 16 mg/dL | 229 ± 25 mg/dL |  |  |
| CC(C)c1[nH]nc(O[C@@H]2O[C@H](CO)[C@@H](O)[C@H](O)[C@H]2O)c1Cc1ccc(OCCCNC(=NC#N)NCCO)cc1 [Example 37, 4-[(4-{3-[2-Cyano-3-(2-hydroxyethyl)guanidino]propoxy}phenyl)methyl]-3-(β-D-glucopyranosyloxy)-5-isopropyl-1H-pyrazole] | 158 nM | 231 ± 21 mg/dL | 286 ± 31 mg/dL |  |  |
| Cc1cc(OCCCNCC(N)=O)ccc1Cc1c(O[C@@H]2O[C@H](CO)[C@@H](O)[C@H](O)[C@H]2O)n[nH]c1C(C)C [Example 45] | 68 nM | 169 ± 18 mg/dL | 182 ± 27 mg/dL |  |  |
| Cc1cc(OCCCNCCC(N)=O)ccc1Cc1c(O[C@@H]2O[C@H](CO)[C@@H](O)[C@H](O)[C@H]2O)n[nH]c1C(C)C [Example 52, 4-[(4-{3-[2-(Carbamoyl)ethylamino]propoxy}-2-methylphenyl)methyl]-3-(β-D-glucopyranosyloxy)-5-isopropyl-1H-pyrazole] |  | 163 ± 5 mg/dL | 176 ± 10 mg/dL | 0/5 |  |
| Cc1cc(OCCCNC(=N)N)ccc1Cc1c(O[C@@H]2O[C@H](CO)[C@@H](O)[C@H](O)[C@H]2O)n[nH]c1C(C)C [Example 55, 3-(β-D-Glucopyranosyloxy)-4-{[4-(3-guanidinopropoxy)-2-methylphenyl]methyl}-5-isopropyl-1H-pyrazole] | 98 nM | 200 ± 16 mg/dL | 211 ± 18 mg/dL |  |  |
| Cc1cc(OCCNC(=N)N)ccc1Cc1c(O[C@@H]2O[C@H](CO)[C@@H](O)[C@H](O)[C@H]2O)n[nH]c1C(C)C [Example 56, 3-(β-D-Glucopyranosyloxy)-4-{[4-(2-guanidinoethoxy)-2-methylphenyl]methyl}-5-isopropyl-1H-pyrazole] | 38 nM | 146 ± 7 mg/dL | 165 ± 17 mg/dL |  |  |
| Cc1cc(OCCCNC(CO)CO)ccc1Cc1c(O[C@@H]2O[C@H](CO)[C@@H](O)[C@H](O)[C@H]2O)n[nH]c1C(C)C [Example 59, 3-(β-D-Glucopyranosyloxy)-4-[(4-(3-[2-hydroxy-1-(hydroxymethyl)ethylamino]propoxy)-2-methylphenyl)methyl]-5-isopropyl-1H-pyrazole] | 71 nM | 143 ± 4 mg/dL | 154 ± 13 mg/dL |  |  |
| CC(C)c1[nH]nc(O[C@@H]2O[C@H](CO)[C@@H](O)[C@H](O)[C@H]2O)c1Cc1ccc(OCCCNCc2cccnc2)cc1 [Example 64, 3-(β-D-Glucopyranosyloxy)-5-isopropyl-4-({4-[3-(3-pyridyl-methylamino)propoxy]phenyl}methyl)-1H-pyrazole] | 178 nM | 141 ± 12 mg/dL | 148 ± 22 mg/dL |  | 116 ± 2 mg/dL |
